In experiment [1] the test system is 4th stage larvae (L4) of Dirofilaria immitis. The experiment is described as follows: Dirofilaria immitis, L4 Stage (DiL4) In Vitro Assay. In kind it is cell-based. The conditions noted are these: Dirofilaria immitis, 72 h, read-out: DiL4 Minimum Effective Dose (MED), approximately 72 hours incubation; L4 larvae assessed for survival or paralysis.
For experiment [2], the system named is third stage larvae of Haemonchus contortus. The experiment is described as follows: Haemonchus contortus L3 (HcL3) Assay. It is filed as cell-based. To be noted: 96 h, read-out: HcL3 Minimum Effective Dose (MED).

`C#Cc1cnn(Cc2ccc(C[C@H]3OC(=O)[C@H](CC(C)C)N(C)C(=O)[C@@H](C)OC(=O)[C@H](CC(C)C)N(C)C(=O)[C@@H](Cc4ccc(Cn5cc(C#C)cn5)cc4)OC(=O)[C@H](CC(C)C)N(C)C(=O)[C@@H](C)OC(=O)[C@H](CC(C)C)N(C)C3=O)cc2)c1` [Example 1b-32, (3S,6R,9S,12R,15S,18R,21S,24R)-6,18-bis({4-[(4-ethynyl-1H-pyrazol-1 yl)methyl]phenyl}methyl)-4,10,12,16,22,24-hexamethyl-3,9,15,21-tetrakis(2-methylpropyl)-1,7,13,19-tetraoxa-4,10,16,22-tetraazacyclotetracosan-2,5,8,11,14,17,20,23-octaone]: the figures for the minimal effective concentration in experiment [1] and in experiment [2] were 0.0001 to 0.001 µM and 10 to 100 µM, respectively.

Take `CCOc1ccn(Cc2ccc(C[C@H]3OC(=O)[C@H](CC(C)C)N(C)C(=O)[C@@H](C)OC(=O)[C@H](CC(C)C)N(C)C(=O)[C@@H](Cc4ccc(Cn5ccc(OCC)n5)cc4)OC(=O)[C@H](CC(C)C)N(C)C(=O)[C@@H](C)OC(=O)[C@H](CC(C)C)N(C)C3=O)cc2)n1` [Example 1b-104, (3S,6R,9S,12R,15S,18R,21S,24R)-6,18-bis(4-((3-ethoxy-1H-pyrazol-1-yl)methyl)benzyl)-3,9,15,21-tetraisobutyl-4,10,12,16,22,24-hexamethyl-1,7,13,19-tetraoxa-4,10,16,22-tetraazacyclotetracosan-2,5,8,11,14,17,20,23-octaone]: the minimal effective concentration is 0.0001 to 0.001 µM in experiment [1] and not above 1 µM in experiment [2].

With `CC(C)C[C@H]1C(=O)O[C@H](Cc2ccc(Cn3nccc3-c3ccccn3)cc2)C(=O)N(C)[C@@H](CC(C)C)C(=O)O[C@H](C)C(=O)N(C)[C@@H](CC(C)C)C(=O)O[C@H](Cc2ccc(Cn3nccc3-c3ccccn3)cc2)C(=O)N(C)[C@@H](CC(C)C)C(=O)O[C@H](C)C(=O)N1C` [Example 1b-173, (3S,6R,9S,12R,15S,18R,21S,24R)-3,9,15,21-tetraisobutyl-4,6,10,16,18,22-hexamethyl-12,24-bis(4-((5-(pyridin-2-yl)-1H-pyrazol-1-yl)methyl)benzyl)-1,7,13,19-tetraoxa-4,10,16,22-tetraazacyclotetracosan-2,5,8,11,14,17,20,23-octaone], the results for the minimal effective concentration in experiment [1] and in experiment [2] were 0.0001 to 0.001 µM and not above 1 µM, respectively.

As for `CC(C)C[C@H]1C(=O)O[C@H](Cc2ccc(Cn3ncnc3C3CCC3)cc2)C(=O)N(C)[C@@H](CC(C)C)C(=O)O[C@H](C)C(=O)N(C)[C@@H](CC(C)C)C(=O)O[C@H](Cc2ccc(Cn3ncnc3C3CCC3)cc2)C(=O)N(C)[C@@H](CC(C)C)C(=O)O[C@H](C)C(=O)N1C` [Example 9-54, (3S,6R,9S,12R,15S,18R,21S,24R)-6,18-bis(4-((5-cyclobutyl-1H-1,2,4-triazol-1-yl)methyl)benzyl)-3,9,15,21-tetraisobutyl-4,10,12,16,22,24-hexamethyl-1,7,13,19-tetraoxa-4,10,16,22-tetraazacyclotetracosan-2,5,8,11,14,17,20,23-octaone], the minimal effective concentration lay in the range of 0.001 to 0.01 µM in experiment [1] and 1 to 10 µM in experiment [2].

Turning to `CCOc1cnn(C(C)(C)c2ccc(C[C@H]3OC(=O)[C@H](CC(C)C)N(C)C(=O)[C@@H](C)OC(=O)[C@H](CC(C)C)N(C)C(=O)[C@@H](Cc4ccc(C(C)(C)n5cc(OCC)cn5)cc4)OC(=O)[C@H](CC(C)C)N(C)C(=O)[C@@H](C)OC(=O)[C@H](CC(C)C)N(C)C3=O)cc2)c1` [Example 1b-171, (3S,6R,9S,12R,15S,18R,21S,24R)-6,18-bis(4-(2-(4-ethoxy-1H-pyrazol-1-yl)propan-2-yl)benzyl)-3,9,15,21-tetraisobutyl-4,10,12,16,22,24-hexamethyl-1,7,13,19-tetraoxa-4,10,16,22-tetraazacyclotetracosan-2,5,8,11,14,17,20,23-octaone], the values for the minimal effective concentration in experiment [1] and in experiment [2] were not above 0.0001 µM and not above 1 µM, respectively.

In the case of `CC(C)C[C@H]1C(=O)O[C@H](Cc2ccc(Cn3c(C#N)ccc3C#N)cc2)C(=O)N(C)[C@@H](CC(C)C)C(=O)O[C@H](C)C(=O)N(C)[C@@H](CC(C)C)C(=O)O[C@H](Cc2ccc(Cn3c(C#N)ccc3C#N)cc2)C(=O)N(C)[C@@H](CC(C)C)C(=O)O[C@H](C)C(=O)N1C` [Example 9-12, 1,1′-(((((2R,5S,8R,11S,14R,17S,20R,23S)-5,11,17,23-tetraisobutyl-4,8,10,16,20,22-hexamethyl-3,6,9,12,15,18,21,24-octaoxo-1,7,13,19-tetraoxa-4,10,16,22-tetraazacyclotetracosane-2,14-diyl)bis(methylene))bis(4,1-phenylene))bis(methylene))bis(1H-pyrrole-2,5-dicarbonitrile)], the figures for the minimal effective concentration in experiment [1] and in experiment [2] were not above 0.0001 µM and not above 1 µM, respectively.

As to `CC(C)C[C@H]1C(=O)O[C@H](Cc2ccc(Cn3cc(F)cn3)cc2)C(=O)N(C)[C@@H](CC(C)C)C(=O)O[C@H](C)C(=O)N(C)[C@@H](CC(C)C)C(=O)O[C@H](Cc2ccc(Cn3cc(F)cn3)cc2)C(=O)N(C)[C@@H](CC(C)C)C(=O)O[C@H](C)C(=O)N1C` [Example 1b-17, (3S,6R,9S,12R,15S,18R,21S,24R)-6,18-bis(4-((4-fluoro-1H-pyrazol-1-yl)methyl)benzyl)-3,9,15,21-tetraisobutyl-4,10,12,16,22,24-hexamethyl-1,7,13,19-tetraoxa-4,10,16,22-tetraazacyclotetracosan-2,5,8,11,14,17,20,23-octaone], the values for the minimal effective concentration in experiment [1] and in experiment [2] were 0.0001 to 0.001 µM and 1 to 10 µM, respectively.

For the compound `CC(C)C[C@H]1C(=O)O[C@H](Cc2ccc(Cn3cccc3C#N)cc2)C(=O)N(C)[C@@H](CC(C)C)C(=O)O[C@H](C)C(=O)N(C)[C@@H](CC(C)C)C(=O)O[C@H](Cc2ccc(Cn3cccc3C#N)cc2)C(=O)N(C)[C@@H](CC(C)C)C(=O)O[C@H](C)C(=O)N1C` [Example 9-16, 1-[[4-[[(2R,5S,8R,11S,14R,17S,20R,23S)-14-[[4-[(2-cyanopyrrol-1-yl)methyl]phenyl]methyl]-5,11,17,23-tetraisobutyl-4,8,10,16,20,22-hexamethyl-3,6,9,12,15,18,21,24-octaoxo-1,7,13,19-tetraoxa-4,10,16,22-tetrazacyclotetracos-2-yl]methyl]phenyl]methyl]pyrrole-2-carbonitrile], the minimal effective concentration in experiment [1] was not above 0.0001 µM; in experiment [2] it was not above 1 µM.

Take `Cc1cccc(-c2ccnn2Cc2ccc(C[C@H]3OC(=O)[C@H](CC(C)C)N(C)C(=O)[C@@H](C)OC(=O)[C@H](CC(C)C)N(C)C(=O)[C@@H](Cc4ccc(Cn5nccc5-c5cccc(C)n5)cc4)OC(=O)[C@H](CC(C)C)N(C)C(=O)[C@@H](C)OC(=O)[C@H](CC(C)C)N(C)C3=O)cc2)n1` [Example 1b-177, (3S,6R,9S,12R,15S,18R,21S,24R)-3,9,15,21-tetraisobutyl-4,6,10,16,18,22-hexamethyl-12,24-bis(4-((5-(6-methylpyridin-2-yl)-1H-pyrazol-1-yl)methyl)benzyl)-1,7,13,19-tetraoxa-4,10,16,22-tetraazacyclotetracosan-2,5,8,11,14,17,20,23-octaone]: the minimal effective concentration in experiment [1] is not above 0.0001 µM; in experiment [2], not above 1 µM.

In the case of `Cc1ccnn1Cc1ccc(C[C@H]2OC(=O)[C@H](CC(C)C)N(C)C(=O)[C@@H](C)OC(=O)[C@H](CC(C)C)N(C)C(=O)[C@@H](Cc3ccc(Cn4nccc4C)cc3)OC(=O)[C@H](CC(C)C)N(C)C(=O)[C@@H](C)OC(=O)[C@H](CC(C)C)N(C)C2=O)cc1` [Example 1b-160, (3S,6R,9S,12R,15S,18R,21S,24R)-3,9,15,21-tetraisobutyl-4,6,10,16,18,22-hexamethyl-12,24-bis(4-((5-methyl-1H-pyrazol-1-yl)methyl)benzyl)-1,7,13,19-tetraoxa-4,10,16,22-tetraazacyclotetracosan-2,5,8,11,14,17,20,23-octaone], the values for the minimal effective concentration in experiment [1] and in experiment [2] were 0.0001 to 0.001 µM and not above 1 µM, respectively.

On to `CC(C)C[C@H]1C(=O)O[C@H](Cc2ccc(C(C3CC3)n3cccn3)cc2)C(=O)N(C)[C@@H](CC(C)C)C(=O)O[C@H](C)C(=O)N(C)[C@@H](CC(C)C)C(=O)O[C@H](Cc2ccc(C(C3CC3)n3cccn3)cc2)C(=O)N(C)[C@@H](CC(C)C)C(=O)O[C@H](C)C(=O)N1C` (stereo partly drawn) [Example 1c-4, (3S,6R,9S,12R,15S,18R,21S,24R)-6,18-bis(4-(cyclopropyl(1H-pyrazol-1-yl)methyl)benzyl)-3,9,15,21-tetraisobutyl-4,10,12,16,22,24-hexamethyl-1,7,13,19-tetraoxa-4,10,16,22-tetraazacyclotetracosan-2,5,8,11,14,17,20,23-octaone], for which the minimal effective concentration in experiment [1] is 0.0001 to 0.001 µM; in experiment [2], not above 1 µM.

In the case of `CC(C)C[C@H]1C(=O)O[C@H](Cc2ccc(Cn3cccc3C(N)=O)cc2)C(=O)N(C)[C@@H](CC(C)C)C(=O)O[C@H](C)C(=O)N(C)[C@@H](CC(C)C)C(=O)O[C@H](Cc2ccc(Cn3cccc3C(N)=O)cc2)C(=O)N(C)[C@@H](CC(C)C)C(=O)O[C@H](C)C(=O)N1C` [Example 9-32, 1-[[4-[[(2R,5S,8R,11 S,14R,17S,20R,23S)-14-[[4-[(2-carbamoylpyrrol-1-yl)methyl]phenyl]methyl]-5,11,17,23-tetraisobutyl-4,8,10,16,20,22-hexamethyl-3,6,9,12,15,18,21,24-octaoxo-1,7,13,19-tetraoxa-4,10,16,22-tetrazacyclotetracos-2-yl]methyl]phenyl]methyl]pyrrole-2-carboxamide], the minimal effective concentration in experiment [1] is 0.0001 to 0.001 µM; in experiment [2], not above 1 µM.

For the compound `CC(C)C[C@H]1C(=O)O[C@H](Cc2ccc(Cn3nccc3-c3ccc(F)cn3)cc2)C(=O)N(C)[C@@H](CC(C)C)C(=O)O[C@H](C)C(=O)N(C)[C@@H](CC(C)C)C(=O)O[C@H](Cc2ccc(Cn3nccc3-c3ccc(F)cn3)cc2)C(=O)N(C)[C@@H](CC(C)C)C(=O)O[C@H](C)C(=O)N1C` [Example 1b-189, (3S,6R,9S,12R,15S,18R,21S,24R)-6,18-bis(4-((5-(5-fluoropyridin-2-yl)-1H-pyrazol-1-yl)methyl)benzyl)-3,9,15,21-tetraisobutyl-4,10,12,16,22,24-hexamethyl-1,7,13,19-tetraoxa-4,10,16,22-tetraazacyclotetracosan-2,5,8,11,14,17,20,23-octaone], the minimal effective concentration in experiment [1] lay in the range of 0.0001 to 0.001 µM; in experiment [2], 10 to 100 µM.

The values above are taken from patent US11331369B2, “Endoparasitic depsipeptides” (Zoetis Services LLC, priority 2017, dated 2022).
